In brackets after ≈: the same amount, converted by molar mass. Where a SMILES comes first, the peptide text is derived from it. The star is where a group is joined. Benzoyl(4-B(OH)2) = O=C(c1ccc(B(O)O)cc1)*; Acridin9yl = c1ccc2c(*)c3ccccc3nc2c1; Bz = O=C(c1ccccc1)*
What was measured:
[1] = tested on: Staphylococcus aureus; test: Antimicrobial activity against Staphylococcus aureus ATCC 6538 measured on day 4 by broth microdilution method; type: functional; details: ATCC 6538, 96 h
[2] = tested on: Escherichia coli; test: Antimicrobial activity against Escherichia coli C ATCC 13706 measured on day 4 by broth microdilution method; type: functional; details: C ATCC 13706, 96 h
[3] = tested on: Mycolicibacterium smegmatis; test: Antimicrobial activity against Mycobacterium smegmatis ATCC 607 measured on day 4 by broth microdilution method; type: functional; details: ATCC 607, 96 h
[4] = tested on: Candida albicans; test: Antifungal activity against Candida albicans measured on day 4 by broth microdilution method; type: functional; details: 96 h
[5] = tested on: Aspergillus niger; test: Antifungal activity against Aspergillus niger measured on day 4 by broth microdilution method; type: functional; details: 96 h
[6] = tested on: Saccharomyces cerevisiae; test: Induction of membrane lysis activity in Saccharomyces cerevisiae assessed as maltase release at MIC after 60 mins relative to control; type: functional
[7] = tested on: Candida albicans; test: Induction of membrane lysis in Candida albicans assessed as maltase release at MIC after 60 mins relative to control; type: functional
[8] = tested on: Candida albicans; test: Antifungal activity against Candida albicans VT1406 in cell suspension after 24 hrs by XXT/PMS dye based assay; type: functional; details: VT1406, 24 h
[9] = tested on: Candida albicans; test: Antibiofilm activity against Candida albicans VT1406 after 24 hrs by XXT/PMS dye based assay; type: functional; details: VT1406, 24 h
[10] = tested on: Erythrocyte; test: Hemolytic activity in sheep RBC measured after 15 mins; type: ADME, cell-based, Ovis aries; details: 0.25 h
[11] = Safety index, ratio of EC10 for hemolytic activity in sheep RBC to MIC for Candida albicans; type: toxicity; details: sheep red blood cells
[12] = tested on: U-87 MG; test: Cytotoxicity against human U87 cells assessed as decrease in cell viability at 10 uM after 24 hrs by MTT assay; type: cell-based; details: u-87mg atcc

| SMILES | MIC [1] | MIC [2] | MIC [3] | MIC [4] | MIC [5] | MIC [8] | MIC [9] | Activity [6] | Activity [7] | EC10 [10] | selectivity ratio [11] | Activity [12] |
| --- | --- | --- | --- | --- | --- | --- | --- | --- | --- | --- | --- | --- |
| NCCCC[C@H](NC(=O)[C@H](CCCCNC(=O)c1ccccc1)NC(=O)[C@H](CCCCNC(=O)c1ccccc1)NC(=O)[C@H](CCCCN)NC(=O)[C@H](CCCCN)NC(=O)[C@H](CCCCN)NC(=O)[C@H](CCCCN)NC(=O)[C@H](CCCCN)NC(=O)[C@@H](N)CCCCN)C(=O)N[C@@H](Cc1ccc(O)cc1)C(=O)O (H-KKKKKKK(Bz)K(Bz)KY-OH) | 62.5 µg/mL (≈ 40.5 µM) | 16 µg/mL (≈ 10.4 µM) | 32 µg/mL (≈ 20.7 µM) | 1 µg/mL (≈ 0.648 µM) | 250 µg/mL (≈ 162 µM) | – | – | – | – | – | – | – |
| CC(C)C[C@H](NC(=O)[C@H](CCCCNC(=O)c1ccccc1)NC(=O)[C@H](CCCCN)NC(=O)[C@H](CCCCN)NC(=O)[C@H](CCCCN)NC(=O)[C@H](CCCCN)NC(=O)[C@H](CCCCN)NC(=O)[C@@H](N)CCCCN)C(=O)N[C@@H](CCCCN)C(=O)N[C@@H](Cc1ccc(O)cc1)C(=O)O (H-KKKKKKK(Bz)LKY-OH) | 62.5 µg/mL (≈ 43.9 µM) | 32 µg/mL (≈ 22.5 µM) | 32 µg/mL (≈ 22.5 µM) | 2 µg/mL (≈ 1.4 µM) | 125 µg/mL (≈ 87.8 µM) | – | – | 1% | <1% | – | – | – |
| CC(C)C[C@H](NC(=O)[C@H](CCCCN)NC(=O)[C@H](CCCCN)NC(=O)[C@H](CC(C)C)NC(=O)[C@H](CCCCN)NC(=O)[C@@H](N)CCCCN)C(=O)N[C@@H](CCCCN)C(=O)N[C@@H](CCCCNC(=O)c1ccc(B(O)O)cc1)C(=O)N[C@@H](CCCCNC(=O)c1ccc(B(O)O)cc1)C(=O)N[C@@H](Cc1ccc(O)cc1)C(=O)O (H-KKLKKLKK(Benzoyl(4-B(OH)2))K(Benzoyl(4-B(OH)2))Y-OH) | 62.5 µg/mL (≈ 39 µM) | 16 µg/mL (≈ 10 µM) | 62.5 µg/mL (≈ 39 µM) | 8 µg/mL (≈ 5 µM) | 125 µg/mL (≈ 78.1 µM) | – | – | – | – | – | – | – |
| CC(C)C[C@H](NC(=O)[C@H](CCCCN)NC(=O)[C@H](CC(C)C)NC(=O)[C@H](CCCCN)NC(=O)[C@H](CCCCN)NC(=O)[C@H](CC(C)C)NC(=O)[C@@H](N)CCCCN)C(=O)N[C@@H](CCCCN)C(=O)N[C@@H](CCCCNC(=O)c1ccc(B(O)O)cc1)C(=O)N[C@@H](Cc1ccc(O)cc1)C(=O)O (H-KLKKLKLKK(Benzoyl(4-B(OH)2))Y-OH) | 62.5 µg/mL (≈ 43.5 µM) | 16 µg/mL (≈ 11.1 µM) | 32 µg/mL (≈ 22.3 µM) | 4 µg/mL (≈ 2.78 µM) | 125 µg/mL (≈ 86.9 µM) | – | – | – | – | – | – | – |
| CC(C)C[C@H](NC(=O)[C@H](CC(C)C)NC(=O)[C@H](CCCCN)NC(=O)[C@H](CCCCNC(=O)c1ccc(B(O)O)cc1)NC(=O)[C@H](CCCCN)NC(=O)[C@H](CCCCN)NC(=O)[C@H](CCCCNC(=O)c1ccc(B(O)O)cc1)NC(=O)[C@@H](N)CCCCN)C(=O)N[C@@H](CCCCN)C(=O)N[C@@H](Cc1ccc(O)cc1)C(=O)O (H-KK(Benzoyl(4-B(OH)2))KKK(Benzoyl(4-B(OH)2))KLLKY-OH) | 62.5 µg/mL (≈ 39 µM) | 16 µg/mL (≈ 10 µM) | 62.5 µg/mL (≈ 39 µM) | 16 µg/mL (≈ 10 µM) | 125 µg/mL (≈ 78.1 µM) | – | – | – | – | – | – | – |

Continued by falling MIC [1], values first:

| MIC [1] | MIC [2] | MIC [3] | MIC [4] | MIC [5] | MIC [8] | MIC [9] | SMILES | Activity [6] | Activity [7] | EC10 [10] | selectivity ratio [11] | Activity [12] |
| --- | --- | --- | --- | --- | --- | --- | --- | --- | --- | --- | --- | --- |
| 62.5 µg/mL (≈ 37.3 µM) | 8 µg/mL (≈ 4.77 µM) | 62.5 µg/mL (≈ 37.3 µM) | 8 µg/mL (≈ 4.77 µM) | 125 µg/mL (≈ 74.6 µM) | – | – | CC(C)C[C@H](NC(=O)[C@H](CCCCN)NC(=O)[C@H](CCCCN)NC(=O)[C@H](CCCCN)NC(=O)[C@H](CCCCNC(=O)c1ccccc1)NC(=O)[C@H](CCCCN)NC(=O)[C@H](CCCCN)NC(=O)[C@@H](N)CCCCNC(=O)c1ccccc1)C(=O)N[C@@H](CCCCNC(=O)c1ccc(B(O)O)cc1)C(=O)N[C@@H](Cc1ccc(O)cc1)C(=O)O (H-K(Bz)KKK(Bz)KKKLK(Benzoyl(4-B(OH)2))Y-OH) | – | – | – | – | – |
| 62.5 µg/mL (≈ 43.9 µM) | 16 µg/mL (≈ 11.2 µM) | 125 µg/mL (≈ 87.9 µM) | 8 µg/mL (≈ 5.62 µM) | 250 µg/mL (≈ 176 µM) | – | – | CC(C)C[C@H](NC(=O)[C@H](CC(C)C)NC(=O)[C@H](CCCCN)NC(=O)[C@H](CC(C)C)NC(=O)[C@@H](N)CC(C)C)C(=O)N[C@@H](CCCCN)C(=O)N[C@@H](CCCCN)C(=O)N[C@@H](CCCCNC(=O)c1ccc(B(O)O)cc1)C(=O)N[C@@H](CCCCN)C(=O)N[C@@H](Cc1ccc(O)cc1)C(=O)O (H-LLKLLKKK(Benzoyl(4-B(OH)2))KY-OH) | – | – | – | – | – |
| 32 µg/mL (≈ 22 µM) | 16 µg/mL (≈ 11 µM) | 32 µg/mL (≈ 22 µM) | 4 µg/mL (≈ 2.75 µM) | 62.5 µg/mL (≈ 43 µM) | – | – | CC(C)C[C@H](NC(=O)[C@H](CCCCNC(=O)c1ccc(B(O)O)cc1)NC(=O)[C@H](CC(C)C)NC(=O)[C@H](CCCCN)NC(=O)[C@H](CCCCN)NC(=O)[C@H](CCCCN)NC(=O)[C@H](CCCCN)NC(=O)[C@H](CCCCN)NC(=O)[C@@H](N)CCCCN)C(=O)N[C@@H](Cc1ccc(O)cc1)C(=O)O (H-KKKKKKLK(Benzoyl(4-B(OH)2))LY-OH) | – | – | – | – | – |
| 16 µg/mL (≈ 10.7 µM) | 8 µg/mL (≈ 5.34 µM) | 32 µg/mL (≈ 21.4 µM) | 2 µg/mL (≈ 1.34 µM) | 62.5 µg/mL (≈ 41.8 µM) | 1 µg/mL (≈ 0.668 µM) | 1 µg/mL (≈ 0.668 µM) | CC(C)C[C@H](NC(=O)[C@H](CCCCN)NC(=O)[C@H](CCCCN)NC(=O)[C@H](CCCCN)NC(=O)[C@H](CCCCN)NC(=O)[C@H](CCCCN)NC(=O)[C@H](CCCCN)NC(=O)[C@@H](N)CCCCN)C(=O)N[C@@H](CCCCNc1c2ccccc2nc2ccccc12)C(=O)N[C@@H](Cc1ccc(O)cc1)C(=O)O (H-KKKKKKKLK(Acridin9yl)Y-OH) | 0.7% | 6% | > 250 µg/mL | > 100 | Non-Toxic |
